Key:
[1] = Ascorbic acid release from vesicles by dialysis at pH 2 and pH 7; type: physicochemical; details: 37 °C
Protocol: The velocity (concentration as a function of time) at which the ascorbic acid is released from the vesicles as a function of pH (2 and 7) was measured as well. The dispersions (1 mL) were transferred into dialysis tubes Spectra-Por (300 kDa Float-A-Lyzer G2) immersed in 50 mL of a solution of HCl 0.1 M (pH 2), or in 50 mL of PBS (Phosphate Buffered Saline at pH 7), and maintained at 37 °C under constant stirring for 2 hours at pH 2 and for 6 hours at pH 7. A percentage of the sample was removed at predefined time intervals, and the ascorbic acid concentration was measured with a UV spectrophotometer. […] As aforementioned, release studies were carried out in order to evaluate the ability of the lamellar vesicles to retain and protect the ascorbic acid during the passage through the stomach (pH 2) and/or to retain/protect the same at the neutral pH of the intestine. […] The nutriosomes of the present invention, with or without the additional polymer HPMC, release a quantity of less than 20% after 20 minutes; subsequently, the HPMC-nutriosomes release the lowest percentage, ~40%, after 120 minutes.

Caco2 cells = assay: Protection of Caco2 cells against hydrogen peroxide oxidative damage (MTT), curcumin formulations; type: cell-based, human; details: Caco2 cells treated with hydrogen peroxide and simultaneously with curcumin formulation, 4 hours; % of untreated cells
Protocol: A study was carried out to evaluate the in vitro ability of the nutriosomes to improve the protective efficacy of curcumin against the oxidative damage induced in Caco2 cells by hydrogen peroxide (Figure 8). The cells were sown in 96-well plates and incubated at 37 °C in an atmosphere with 5% CO2 for the period necessary for achieving confluence. As a negative control, cells maintained in optimal growth conditions and not treated either with hydrogen peroxide or with curcumin were used; as a positive control, cells maintained in optimal growth conditions and treated with hydrogen peroxide, but not treated with curcumin, were used. The other cells were treated with hydrogen peroxide and, simultaneously, with curcumin in aqueous dispersion or carried in liposomes, nutriosomes and HPMC-nutriosomes. The cells were incubated for 4 hours, washed with PBS, and then cell survival was measured by means of a colorimetric test with tetrazolium salt, 3-(4,5-dimethylthiazol-2-yl)-2,5-diphenyltetrazolium bromide (MTT) (see annexed Figure 8). Cell viability was calculated as a percentage of the viability of the untreated cells (negative control).

[2] = Plasmatic concentration of curcumin in rats after gavage; type: in vivo, WISTAR male rats; details: 2 mL containing 20 mg/mL of curcumin, during the 8 hours of study
Protocol: Curcumin in dispersion or carried in liposomes or nutriosomes was administered to rats in vivo, and both the local accumulation and the plasmatic concentration were measured. The experiments were conducted by using WISTAR male rats (8-12 weeks of age and 230-250 g). The animals were treated in accordance with the European Union regulations concerning the use of laboratory animals. The protocols have been approved by the Istitutional Animal Care and Use Committee of the University of Valencia (Spain). Throughout the length of the study, the animals were kept in a thermally conditioned chamber, with a light/dark cycle of 12 hours and free access to water and food. […] In order to measure the quantity of curcumin accumulated in the intestine, the rats were sacrificed 4 hours after administration, and the gastrointestinal apparatus was removed and divided into the different segments. […]
In order to quantify a plasmatic concentration of curcumin when administering the aqueous dispersion, it was necessary to double the concentration; therefore, 2 mL of dispersion were administered, containing 20 mg/mL of curcumin instead of 10 mg/mL as in liposomes and nutriosomes (Figure 10). Notwithstanding this, the measured plasmatic concentration is always very low, i.e. ∼10 ng/mL during the 8 hours of study. […]

Caco2 = assay: Biocompatibility on Caco2 cells, 48 hours, MTT (curcumin, EU-nutriosomes); type: cell-based, human; details: Caco2, 48 hours, higher dilutions; % of untreated cells
Protocol: The biocompatibility of curcumin in dispersion or carried in liposomes or EU-nutriosomes was measured by treating intestinal cells (Caco2) with the vesicular formulations at different dilutions for 48 hours. At the end of this incubation period, cell viability was measured by MTT test, and was expressed as a percentage with respect to the untreated cells (negative control). The results are shown in the annexed Figure 13. At the lowest dilution (10 µg/mL of curcumin), viability is ~75%, regardless of the tested sample; at higher dilutions, the viability of the cells treated with curcumin in dispersion remains around 80%, while that of the cells treated with the nutriosomes is greater (~105%) and equal to that of the reference liposomes, which are generally known to be a non-toxic and biocompatible carrier. Probably all vesicular systems are capable of modulating the curcumin uptake within the cells, thereby reducing any toxic effect thereof. By using a non-toxic dilution (1 µg/mL of curcumin), we studied the ability of the formulations to promote the antioxidizing efficacy of the polyphenol. As shown in the previous example, the cells were stressed with hydrogen peroxide and simultaneously treated with curcumin in dispersion or incorporated in the vesicles (see annexed Figure 14). […]

Structure (SMILES)	ascorbic acid released ([1]; pH 2 (HCl 0.1 M), after 20 minutes)	ascorbic acid released ([1]; pH 7 (PBS), after 1 hour)	cell viability (Caco2 cells)	plasmatic concentration of curcumin [2]	cell viability (Caco2)
O=C1O[C@H]([C@@H](O)CO)C(O)=C1O [aqueous solution, ascorbic acid]	approximately 80%	about 80%	–	–	–
COc1cc(C=CC(=O)CC(=O)C=Cc2ccc(O)c(OC)c2)ccc1O [curcumin in aqueous dispersion, 1,7-Bis(4-hydroxy-3-methoxyphenyl)hepta-1,6-diene-3,5-dione]	–	–	~ 69%	~10 ng/mL	around 80%

From patent EP3409293B1, “COMPLEXES COMPRISING PHOSPHOLIPIDS, WATER-SOLUBLE DEXTRIN FIBERS AND ANTIOXIDANT ACTIVE PRINCIPLES OF NATURAL ORIGIN, THEIR PREPARATION AND USE IN ORAL FORMULATIONS” (UNIVERSITA' DEGLI STUDI DI CAGLIARI, priority 2017, dated 2018)
